{"source": "patent US4576962A", "about": "“Prostaglandin analogues” (priority 1984, dated 1986)", "key": {"stomach mucosa": {"test_system": "stomach mucosa", "assay": "cytoprotective activity in rats (absolute ethanol induced stomach mucosa lesions)", "type": "in vivo, Sprague-Dawley rats", "details": "for Cytoprotection % / ED50: oral, rat; for ED50: read-out: ED50 Cytoprotection", "protocol": "A number of the 13,14-didehydro-15-oxo-prostaglandin analogues have been tested for cytoprotective activity in rats. In this test, Sprague-Dawley rats were fasted for 24 hours prior to the pretreatment. […] The control animals were given 2.5 ml of the vehicle, without prostaglandin analogue. A half hour later after the pretreatment, absolute ethanol was administered orally to the animals, in a dose of 10 mL per kg body weight. One hour later the animals were sacrificed, their stomachs dissected out, opened along the greater curvature and the mucosa examined for lesions. The average lesion length is expressed as percentage of the average lesion length found in the stomach mucosa of control animals.\nImportantly, this test measures the active cytoprotective properties of the prostaglandin analogues, independent of the gastric secretion inhibition that these compounds may or may not show. The test is discussed more fully by Robert et al., Gastroenterology 77 (1979) 433, incorporated herein by reference."}, "small intestine": {"test_system": "small intestine", "assay": "enteropooling assay (diarrheogenic effect, Robert)", "type": "in vivo", "source_text": "(§1) One of the most important side-effects of prostaglandins and prostaglandin analogues is their diarrheogenic effect. An assay was developed by Robert to test the diarrheogenic properties of prostaglandins and prostaglandin analogues. The test quantitatively determines the amount of \"enteropooling\", i.e. the accumulation of fluid into the small intestine."}, "[1]": {"assay": "enteropooling assay (diarrheogenic effect, Robert)", "type": "in vivo", "details": "in vivo; for selectivity ratio: enteropooling dose relative to ED50 cytoprotection, defined in drawing 10, read-out: TI (therapeutic index)", "source_text": "as §1"}, "pregnant quinea pigs": {"test_system": "pregnant quinea pigs", "assay": "abortificative effect in pregnant guinea pigs", "type": "in vivo", "details": "25 mg/kg oral, days 43 and 44 of gestation, 6 animals", "protocol": "Another important side effect of natural prostaglandins and prostaglandin analogues is their abortificative effect. Compound 1 was tested for this effect as follows."}, "rat fundic strip": {"test_system": "rat fundic strip", "assay": "smooth muscle contraction, rat fundic strip assay", "protocol": "The smooth muscle contraction potency of compound 1 was tested in the rat fundic strip assay, described by W. L. M. Perry in \"Pharmacological Experiments on Isolated Preparations,\" 2nd ed. (1970), pp. 88-89, Churchill L. Livingstone, publisher."}, "[2]": {"details": "metabolism / intragastric dehydrogenation at C15; cited from earlier work"}, "[3]": {"details": "background art; cited from earlier work"}, "PGDH": {"test_system": "PGDH", "details": "Gandolfi et al.; cited from earlier work"}, "[4]": {"details": "rat model; compared to natural prostaglandin PGE2; cited from earlier work"}, "gastric ulceration [5]": {"test_system": "gastric ulceration", "assay": "gastric ulceration in arthritis patients receiving aspirin, tablets four times daily", "type": "in vivo", "details": "tablets orally four times daily; patients with arthritis on 1000 mg aspirin daily"}, "gastric ulceration [6]": {"test_system": "gastric ulceration", "assay": "gastric ulceration in patients, capsules administered twice daily", "type": "in vivo", "details": "patient ca. 70 kg"}, "[7]": {"details": "dose 0.5 mg/kg, negative = lesions worse than control"}}}
{"smiles": "CCCCCC(=O)C#C[C@@H]1[C@@H](C/C=C\\CCCC(=O)OC)[C@@H](O)C[C@H]1O", "note": "[PGF2α triple oxo (a), 13,14-didehydro-15-keto PGF2α methyl ester]", "values": [{"measurement": "cytoprotective potency", "setting": "stomach mucosa; compared with PGF2α itself (tests nos. 7-10)", "result": "much more potent cytoprotective agent"}, {"measurement": "Cytoprotection %", "setting": "stomach mucosa; dose 0.001 mg/kg", "result": 6, "unit": "%"}, {"measurement": "Cytoprotection %", "setting": "stomach mucosa; dose 0.01 mg/kg", "result": 23, "unit": "%"}, {"measurement": "Cytoprotection %", "setting": "stomach mucosa; dose 0.1 mg/kg", "result": 50, "unit": "%"}, {"measurement": "Cytoprotection %", "setting": "stomach mucosa; [7]", "result": 98, "unit": "%"}]}
{"smiles": "CCCCCC(=O)C#C[C@H]1CCC(=O)[C@@H]1CCCCCCC(=O)O", "note": "(relative stereo) [Compound 1, 11-Deoxy-13,14-didehydro-15-oxo PGE1]", "values": [{"measurement": "diarrheogenic effect", "setting": "small intestine; compared to PGE2 and PGE2 analogues", "result": "very low diarrheogenic effect"}, {"measurement": "therapeutic index", "setting": "small intestine; compared with the other compounds of table 2", "result": "significantly higher"}, {"measurement": "TD50", "setting": "[1]", "result": 25, "unit": "mg/kg"}, {"measurement": "selectivity ratio", "setting": "[1]", "result": 250}, {"measurement": "abortion induced", "setting": "pregnant quinea pigs", "result": "in none of the animals did the dose of compound 1 induce abortion"}, {"measurement": "ED50", "setting": "stomach mucosa", "result": 0.1, "unit": "mg/kg"}, {"measurement": "EC50 for smooth muscle contraction relative to PGE2", "setting": "rat fundic strip; compound 1 EC50 higher than that of PGE2", "result": "three orders of magnitude higher"}, {"measurement": "EC50 for smooth muscle contraction relative to PGF2α and PGE1", "setting": "rat fundic strip; compound 1 EC50 higher than that of PGF2α and PGE1", "result": "two orders of magnitude higher"}, {"measurement": "EC50", "setting": "rat fundic strip; rat fundic strip", "result": 5, "unit": "µM"}]}
{"smiles": "CCCCC[C@](C)(O)/C=C/[C@H]1[C@H](O)CC(=O)[C@@H]1C/C=C\\CCCC(=O)O", "note": "[15(S),15-methyl PGE2]", "values": [{"measurement": "stability", "setting": "[2]", "result": "more stable than PGE2 itself"}]}
{"smiles": "CCCCC[C@H](O)/C=C/[C@@H]1[C@@H](C/C=C\\CCCC(=O)OC)[C@@H](O)C[C@H]1O", "note": "[PGF2α trans OH (a)]", "values": [{"measurement": "Cytoprotection %", "setting": "stomach mucosa; dose 0.001 mg/kg", "result": -19, "unit": "%"}, {"measurement": "Cytoprotection %", "setting": "stomach mucosa; dose 0.01 mg/kg", "result": 1.7, "unit": "%"}, {"measurement": "Cytoprotection %", "setting": "stomach mucosa; dose 0.1 mg/kg", "result": -17, "unit": "%"}, {"measurement": "Cytoprotection %", "setting": "stomach mucosa; [7]", "result": 82, "unit": "%"}]}
{"smiles": "CCCC[C@@H](C)[C@H](O)C#C[C@H]1[C@H](O)CC(=O)[C@@H]1C/C=C\\CCCC(=O)O", "note": "[16(R),16-methyl-13-dehydro PGE2]", "values": [{"measurement": "gastric anti-ulcer properties / activity", "setting": "[3]", "result": "potent gastric anti-ulcer properties"}, {"measurement": "substrate for the enzyme PGDH", "setting": "PGDH", "result": "not substrates for the enzyme PGDH"}]}
{"smiles": "CCCCC[C@@](C)(O)/C=C/[C@H]1[C@H](O)CC(=O)[C@@H]1C/C=C\\CCCC(=O)O", "note": "[15(R)-15-methyl PGE2]", "values": [{"measurement": "TD50", "setting": "[1]", "result": 0.005, "unit": "mg/kg"}, {"measurement": "selectivity ratio", "setting": "[1]", "result": "25 to 100"}, {"measurement": "stability", "setting": "[2]", "result": "better stability"}, {"measurement": "ED50 for cytoprotection", "setting": "[4]", "result": "lower value of the ED50"}]}
{"smiles": "CCCC[C@H](C)[C@H](O)C#C[C@H]1[C@H](O)CC(=O)[C@@H]1C/C=C\\CCCC(=O)O", "note": "[16(S),16-methyl-13-dehydro PGE2]", "values": [{"measurement": "gastric anti-ulcer properties / activity", "setting": "[3]", "result": "potent gastric anti-ulcer properties"}, {"measurement": "substrate for the enzyme PGDH", "setting": "PGDH", "result": "not substrates for the enzyme PGDH"}]}
{"smiles": "CCCCCC(=O)C#C[C@@H]1[C@@H](C/C=C\\CCCC(=O)O)[C@@H](O)C[C@H]1O", "note": "[13,14-didehydro-15-oxo-PGF2α]", "values": [{"measurement": "reduction of incidence of gastric ulceration", "setting": "gastric ulceration [5]", "result": "effectively reduces the incidence of gastric ulceration"}]}
{"smiles": "CCCCCC(=O)/C=C/[C@H]1CCC(=O)[C@@H]1CCCCCCC(=O)OC", "note": "(relative stereo) [PGE1 trans oxo (a) (d)]", "values": [{"measurement": "Cytoprotection %", "setting": "stomach mucosa; [7]", "result": -22, "unit": "%"}, {"measurement": "Cytoprotection %", "setting": "stomach mucosa; dose 3 mg/kg", "result": 52, "unit": "%"}]}
{"smiles": "CCCCCC(=O)C#C[C@H]1CCC(=O)[C@@H]1CCCCCCC(=O)OC", "note": "(relative stereo) [PGE1 triple oxo (a) (d)]", "values": [{"measurement": "Cytoprotection %", "setting": "stomach mucosa; [7]", "result": 39, "unit": "%"}, {"measurement": "Cytoprotection %", "setting": "stomach mucosa; dose 1 mg/kg", "result": 81, "unit": "%"}, {"measurement": "Cytoprotection %", "setting": "stomach mucosa; dose 3 mg/kg", "result": 78, "unit": "%"}, {"measurement": "Cytoprotection %", "setting": "stomach mucosa; dose 5 mg/kg", "result": 96, "unit": "%"}]}
{"smiles": "CCCCCC(=O)C#C[C@H]1[C@H](O)CC(=O)[C@@H]1CCCCCCC(=O)O", "note": "[13,14-didehydro-15-oxo PGE1]", "values": [{"measurement": "reduction of gastric ulceration", "setting": "gastric ulceration [6]", "result": "substantially reduce gastric ulceration"}]}
{"smiles": "CCCCC[C@H](O)/C=C/[C@H]1[C@H](O)CC(=O)[C@@H]1C/C=C\\CCCC(=O)O", "note": "[PGE2]", "values": [{"measurement": "Enteropooling Dose (ED50 for enteropooling)", "setting": "small intestine; in vivo", "result": 0.750, "unit": "mg/kg"}, {"measurement": "selectivity ratio", "setting": "[1]", "result": 30}, {"measurement": "stability", "setting": "[2]", "result": "readily metabolized"}, {"measurement": "ED50", "setting": "stomach mucosa", "result": 0.025, "unit": "mg/kg"}]}
{"smiles": "CCCCC(C)(C)[C@H](O)/C=C/[C@H]1[C@H](O)CC(=O)[C@@H]1C/C=C\\CCCC(=O)O", "note": "[16,16-dimethyl PGE2]", "values": [{"measurement": "TD50", "setting": "[1]", "result": 0.0005, "unit": "mg/kg"}, {"measurement": "selectivity ratio", "setting": "[1]", "result": 10}, {"measurement": "ED50 for cytoprotection", "setting": "[4]", "result": "lower value of the ED50"}]}
